The values below come from PubChem BioAssay (NCI).

Among the test systems are DMS 114 small cell lung; DMS 273 small cell lung; KM20L2 colon; RXF-631 renal; HOP-18 NSCLC; P388 leukemia; P388/ADR leukemia; SN12K1 renal; XF 498 CNS; LXFL 529 NSCLC.
Common to all, as to assay: NCI tumour cell line growth inhibition, 48 h

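1) Cells in 96-well plates. 2) Compound, 48 h, 5 concentrations. 3) Linear interpolation between surrounding doses. 4) Unreached endpoint = highest concentration. At the TGI there is no net growth.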

Regarding `O=C1CCCCC2N(C(c3ccccc3)c3ccccc3)CC[C@@]12c1ccccc1` (mixture of isomers), the TGI with DMS 114 small cell lung, with DMS 273 small cell lung, in the assay with KM20L2 colon and with RXF-631 renal was greater than 10 µM throughout.

As to `C=C(C)C(=O)OC1CCC2(C)C(CCC3C2CCC2(C)C(c4ccc(=O)oc4)CC4OC432)C1` (centres undefined), the TGI in the assay on DMS 114 small cell lung was 9.11 µM; in the assay with DMS 273 small cell lung, 20.5 µM; with HOP-18 NSCLC it was 104 µM; with KM20L2 colon, 40.4 µM; in the assay with P388 leukemia, 15.5 µM; with P388/ADR leukemia it was 31.7 µM. In addition, the values for the TGI with SN12K1 renal and with XF 498 CNS were 17.6 µM and 21 µM, respectively.

As for `Clc1ccccc1/C=C/c1cscn1`, the TGI in the assay on DMS 114 small cell lung, in the assay with LXFL 529 NSCLC and in the assay with XF 498 CNS was greater than 100 µM in each case.

`C=CC1(C)CCC2=C(CCC3C(C)(C(=O)OC)CCCC23C)C1=O` (centres undefined): the TGI in the assay on DMS 114 small cell lung was determined as 32.7 µM; with KM20L2 colon, 40.3 µM; in the assay with LXFL 529 NSCLC, 36.4 µM; in the assay on RXF-631 renal, 31.6 µM.
